Source: the OPERA property sets (Mansouri et al. 2018)

Molecule `Cc1ccccc1OC1OC(CO)C(O)C(O)C1O` (configuration not stated) has a logP of -0.16. In the case of `COc1cc(Cc2cnc(N)nc2N)cc(OCc2ccccc2)c1OCc1ccccc1`, the logP is reported as 4.09. Molecule `CNC(=O)Oc1cccc([N+](=O)[O-])c1` has a logP of 1.39. For `O=C(c1ccncc1)c1ccc(O)cc1`, the logP was 1.37. `O=C1NC(=S)SC1=CC=Cc1ccc([N+](=O)[O-])o1` gave a logP of 0.93. `CCCCN(SN(C)C(=O)ON=C(C)SC)C(=O)c1ccccc1` gave a logP of 3.4. `CCCNCC(=O)NC(=O)C=[N+]=[N-]` gave a logP of -0.24. `CNC(=NC#N)NC` showed a logP of -0.4. Molecule `O=C(NC(CO)C(O)c1ccc(Cl)cc1)C(Cl)Cl` (configuration not stated) has a logP of 1.64. For `CCCC(=O)NC(=O)C1CCC1`, the logP was 0.41. Molecule `Cc1c[n+]([O-])c2ccccc2c1[N+](=O)[O-]` has a logP of 1.06. `CC1=Nc2ccc(F)cc2S(=O)(=O)N1` showed a logP of 0.62. With `O=NN1CCCCCCCC1` the logP was 2.04. For `ClC1C=CCC(Cl)C1Cl` (configuration not stated), the logP was 2.84. With `CCCCCCc1nnc(N)o1` the logP was 1.43. Molecule `Cc1ccccc1NC(=O)C1CNCCN1` (configuration not stated) has a logP of 0.26. In the case of `CN(C(=O)COc1ccccc1)c1ccccc1`, the logP is reported as 2.25. `NC(=O)Cn1nnc2ccccc21` gave a logP of -0.1. `COc1ccccc1C(=O)NCCCN` gave a logP of 0.2. For `OCCCn1nnc2ccccc21`, the logP was 0.91. Work on `COc1cc(-n2[nH]c(C)cc2=O)ncn1` yielded a logP of 0.99. `NC(=O)c1cccc(OC(=O)CNC(=O)c2ccccc2)c1` showed a logP of 1.2. With `COc1ccc(OC2OC(CO)C(O)C(O)C2O)cc1` (configuration not stated) the logP was -0.73. In the case of `COc1ccccc1C(=O)NCCN`, the logP is reported as 0. For `Clc1ccc(Cl)c(-c2ccccc2)c1Cl`, the logP was 5.67. For `COn1c(=O)[nH]c(C)c(Br)c1=O`, the logP was -0.3. Work on `CNC(=O)Oc1ccc(C(C)(C)C)c(C)c1` yielded a logP of 3.38. Work on `CCOC(=O)C(=Cc1ccccc1OC)C(=O)OCC` yielded a logP of 3.29. With `CC(=O)c1ccc2c(c1)C(c1ccccc1F)=NCC(=O)N2` the logP was 1.75. With `C=CCC1(C2=CCCC2)C(=O)NC(=O)N(C)C1=O` (configuration not stated) the logP was 1.89. In the case of `CC(C)(C)c1ccc(OC2OC(CO)C(O)C(O)C2O)cc1` (configuration not stated), the logP is reported as 1.18. `COC(=O)C(C#N)=NNc1cc(C#N)ccc1C#N` gave a logP of 2.81. With `COc1ccccc1C(=O)NCCCN(C)C` the logP was 1.27. Work on `FC(F)(F)c1nc2cc(Br)c(Br)cc2[nH]1` yielded a logP of 4.15. In the case of `CN(Cc1ccccc1)N=Nc1ccc(C#N)cc1`, the logP is reported as 3.82. `O=S1(=O)NC(CCl)=Nc2cc(Cl)ccc21` showed a logP of 1.68. For `CCC(C)C(NC(C)=O)C(=O)NC` (configuration not stated), the logP was 0.14. Work on `Nc1nc(N)nc(-c2c(Cl)cccc2Cl)n1` yielded a logP of 1.38. `CCCCCCCCCCCCS(=O)(=O)[O-].[Na+]` showed a logP of 0.96. With `COc1ccccc1OC1OC(CO)C(O)C(O)C1O` (configuration not stated) the logP was -1.04. `O=C1CN=C(c2c(F)cccc2F)c2cc(Cl)ccc2N1` gave a logP of 2.68. Work on `O=C(CN1CCCCC1)Nc1ccc([N+](=O)[O-])cc1` yielded a logP of 2.72. In the case of `CCCSC1OC(CO)C(O)C(O)C1O` (configuration not stated), the logP is reported as -1.18. `CCN(CC)c1cc(N)[n+]([O-])c(N)n1` gave a logP of 1.16. `CC1(C)N=C(N)N=C(N)N1c1cccc(C#N)c1` gave a logP of -0.24. For `c1ccc(Sc2nnc[nH]2)cc1`, the logP was 1.45. `COC(=O)C(C#N)=NNc1ccc(C(F)(F)F)cc1` gave a logP of 3.79. For `COC(CN1CCCC1)c1ccccc1` (configuration not stated), the logP was 1.88. Molecule `O=C(O)c1ccccc1Nc1cccc(O)c1` has a logP of 3.49. In the case of `Cc1cnc2ccccn2c1=O`, the logP is reported as 0.77. `CC=CCOC(=O)C1C(C=C(C)C)C1(C)C` (configuration not stated) gave a logP of 5.09. For `O=C1C(O)=C(CC=C(Cl)Cl)C(=O)c2ccccc21`, the logP was 3.1. `O=C(COc1ccc(Cl)cc1)NNCc1ccccc1` gave a logP of 2.92. `CS(=O)(=O)c1cccc(CC(=O)O)c1` showed a logP of 0.06. For `Clc1ccc(-c2ccc(Cl)c(Cl)c2Cl)c(Cl)c1`, the logP was 6.61. Molecule `CCOP(=O)(OCC)Oc1ccc(SC)cc1C` has a logP of 3.21. `O=C(Cn1ccnc1[N+](=O)[O-])NCCO` showed a logP of -1.34. Work on `CC(C)CNC(=O)NN` yielded a logP of -0.84. Molecule `CC(=O)c1ccc(NS(=O)(=O)C(F)(F)F)cc1` has a logP of 2.83. Work on `C=CCc1c(OCC)cc(Cc2cnc(N)nc2N)cc1OCC` yielded a logP of 3.08. In the case of `CN(C)CC(=O)NCc1ccccc1`, the logP is reported as 1.11. `NNC(=O)NN=Cc1ccccc1` gave a logP of 0.81. With `CC(=O)OCC1=C(C(=O)O)N2C(=O)C(NC(=O)C(O)c3ccccc3)C2SC1` (configuration not stated) the logP was -0.44. Work on `CC(=O)C(C#N)=NNc1cc(Cl)cc(Cl)c1` yielded a logP of 4.68. With `CCOC(=O)C(=Cc1ccc(OC)c(OC)c1)C(C)=O` the logP was 2.02. Molecule `COc1ccc(C(N)=O)cc1N=NN(C)C` has a logP of 0.44. Molecule `CN1C(=O)CN=C(c2ccccc2F)c2cc(N)ccc21` has a logP of 1.3. Work on `N#Cc1ccc(NS(=O)(=O)c2ccc(N)cc2)cc1` yielded a logP of 1.83. Work on `Cc1cccc(OC2OC(CO)C(O)C(O)C2O)c1` (configuration not stated) yielded a logP of -0.2. For `CCCCCc1ccc(O)cc1`, the logP was 4.06. Work on `Cn1c(C(O)CO)cnc1[N+](=O)[O-]` (configuration not stated) yielded a logP of -0.89. For `Fc1cccc(Cl)c1N=C1NCCN1`, the logP was 1.45. With `O=[N+]([O-])c1nccn1CC(O)CO` (configuration not stated) the logP was -0.96. Work on `Nc1cccc2nccnc12` yielded a logP of 1.29. For `CC(=O)Nc1cccc(OC(=O)CNC(=O)c2ccccc2)c1`, the logP was 1.7. For `O=C(O)COc1cccc(OC(F)(F)F)c1`, the logP was 2.48. Molecule `CC(=O)Nc1cccc(N=NN(C)C)c1` has a logP of 1.61.
